# Source: PubChem BioAssay AID212 (DTP/NCI, 2004)
# Values joined by “and” are separate entries in the source; they are usually repeats but may differ in a detail not shown here. Equal values may be shown once. Records with an inconclusive call do not appear.
# Test system: BDF1 mice, colon carcinoma 38 sc, T/C %
# Test: NCI In Vivo Anticancer Drug Screen. Data for tumor model Colon Carcinoma 38 (subcutaneous) in B6D2F1 (BDF1) mice
# Settings: endpoint: median tumor weight (est.), higher = larger tumour
# Method in brief: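 Ratio of survival or tumor size, compound-treated animals relative to vehicle controls, in tumor-bearing mice.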
# [1] = dose: 25.0 mg/kg/injection, schedule: Q07DX002 (ip), vehicle: saline
compound,measurement,setting,value
COC(=O)C(Cl)(Cl)N=Nc1c(Cl)cc(Cl)c(C)c1Cl,T/C,"dose: 12.5 mg/kg/injection, schedule: Q07DX002 (ip), vehicle: saline",118 % of control
same,T/C,[1],123 % of control
same,T/C,"dose: 50.0 mg/kg/injection, schedule: Q07DX002 (ip), vehicle: saline",123 % of control
same,T/C,"dose: 200.0 mg/kg/injection, schedule: Q07DX002 (ip), vehicle: saline",101 % of control
COc1cc(NCc2ccc3nc(N)nc(N)c3c2C)cc(OC)c1OC (tested in a mixture with another compound),T/C,"dose: 105.0 mg/kg/injection, schedule: Q07DX002 (ip), vehicle: water",86 % of control
same,T/C,"dose: 157.0 mg/kg/injection, schedule: Q07DX002 (ip), vehicle: water",100 % of control
same,T/C,"dose: 236.0 mg/kg/injection, schedule: Q07DX002 (ip), vehicle: water",75 % of control
CN=C(N)N/N=C(\C)c1ccc2c(c1)Cc1cc(/C(C)=N/NC(N)=NC)ccc1-2,T/C,"dose: 0.75 mg/kg/injection, schedule: Q07DX002 (ip), vehicle: saline with Tween-80",104 % of control
same,T/C,"dose: 3.0 mg/kg/injection, schedule: Q07DX002 (ip), vehicle: saline with Tween-80",115 % of control
CN(C)C(=O)c1cccc(COc2ccc(N3C(N)=NC(N)=NC3(C)C)cc2Cl)c1,T/C,"dose: 32.0 mg/kg/injection, schedule: Q07DX003 (ip), vehicle: saline",87 % of control and 98 % of control
same,T/C,"dose: 64.0 mg/kg/injection, schedule: Q07DX003 (ip), vehicle: saline",50 % of control
same,T/C,"dose: 128.0 mg/kg/injection, schedule: Q07DX003 (ip), vehicle: saline",66 % of control
same,T/C,"dose: 256.0 mg/kg/injection, schedule: Q07DX003 (ip), vehicle: saline",59 % of control
C=C1C(=O)C23[C@H](O)C1CC[C@H]2[C@]12COC3(O)[C@@H](O)[C@@H]1C(C)(C)CC[C@@H]2O,T/C,"dose: 1.56 mg/kg/injection, schedule: Q07DX002 (ip), vehicle: saline with Tween-80",104 % of control
same,T/C,"dose: 3.12 mg/kg/injection, schedule: Q07DX002 (ip), vehicle: saline with Tween-80",112 % of control and 96 % of control
same,T/C,"dose: 6.25 mg/kg/injection, schedule: Q07DX002 (ip), vehicle: saline with Tween-80",100 % of control
same,T/C,"dose: 12.5 mg/kg/injection, schedule: Q07DX002 (ip), vehicle: saline with Tween-80",80 % of control
C/C(=C\c1ccccc1)[N+](=O)[O-],T/C,"dose: 12.5 mg/kg/injection, schedule: Q07DX003 (ip), vehicle: Klucel (hydroxypropylcellulose) (HPC)",81 % of control
same,T/C,"dose: 25.0 mg/kg/injection, schedule: Q07DX003 (ip), vehicle: Klucel (hydroxypropylcellulose) (HPC)",79 % of control and 91 % of control
same,T/C,"dose: 50.0 mg/kg/injection, schedule: Q07DX003 (ip), vehicle: Klucel (hydroxypropylcellulose) (HPC)",82 % of control and 90 % of control
CCCCOCN(COCCCC)C12CC3CC(CC(C3)C1)C2,T/C,"dose: 25.0 mg/kg/injection, schedule: Q07DX002 (ip), vehicle: saline with Tween-80",93 % of control
same,T/C,"dose: 50.0 mg/kg/injection, schedule: Q07DX002 (ip), vehicle: saline with Tween-80",73 % of control
same,T/C,"dose: 100.0 mg/kg/injection, schedule: Q07DX002 (ip), vehicle: saline with Tween-80",120 % of control
same,T/C,"dose: 200.0 mg/kg/injection, schedule: Q07DX002 (ip), vehicle: saline with Tween-80",69 % of control
C1CNCOC1,T/C,[1],108 % of control
same,T/C,"dose: 100.0 mg/kg/injection, schedule: Q07DX002 (ip), vehicle: saline",115 % of control
CCCCCCCCCCCCCCCCS(=O)CC(O)COC(=O)c1ccc(C(=O)OCC(O)CS(=O)CCCCCCCCCCCCCCCC)cc1 (stereo unspecified),T/C,"dose: 12.5 mg/kg/injection, schedule: Q07DX002 (ip), vehicle: saline + alcohol",111 % of control
same,T/C,"dose: 25.0 mg/kg/injection, schedule: Q07DX002 (ip), vehicle: saline + alcohol",98 % of control
same,T/C,"dose: 50.0 mg/kg/injection, schedule: Q07DX002 (ip), vehicle: saline + alcohol",98 % of control
same,T/C,"dose: 100.0 mg/kg/injection, schedule: Q07DX002 (ip), vehicle: saline + alcohol",117 % of control
same,T/C,"dose: 200.0 mg/kg/injection, schedule: Q07DX002 (ip), vehicle: saline + alcohol",76 % of control
same,T/C,"dose: 400.0 mg/kg/injection, schedule: Q07DX002 (ip), vehicle: saline + alcohol",104 % of control
O=C1OC(=O)[C@H]2[C@@H]1[C@H]1C=C[C@@H]2OC1=O,T/C,"dose: 25.0 mg/kg/injection, schedule: Q07DX002 (ip), vehicle: suspension in saline",59 % of control
same,T/C,"dose: 50.0 mg/kg/injection, schedule: Q07DX002 (ip), vehicle: suspension in saline",65 % of control
same,T/C,"dose: 100.0 mg/kg/injection, schedule: Q07DX002 (ip), vehicle: suspension in saline",44 % of control
same,T/C,"dose: 200.0 mg/kg/injection, schedule: Q07DX002 (ip), vehicle: suspension in saline",62 % of control
same,T/C,"dose: 400.0 mg/kg/injection, schedule: Q07DX002 (ip), vehicle: suspension in saline",71 % of control
same,T/C,"dose: 800.0 mg/kg/injection, schedule: Q07DX002 (ip), vehicle: suspension in saline",97 % of control
Cc1ncc([N+](=O)[O-])n1CCSC(N)=O,T/C,"dose: 12.5 mg/kg/injection, schedule: Q07DX003 (ip), vehicle: saline with Tween-80",111 % of control
same,T/C,"dose: 25.0 mg/kg/injection, schedule: Q07DX003 (ip), vehicle: saline with Tween-80",164 % of control
same,T/C,"dose: 100.0 mg/kg/injection, schedule: Q07DX003 (ip), vehicle: saline with Tween-80",108 % of control
